# Test results taken from ChEMBL document CHEMBL5634096, “Design, synthesis and bioevaluation of PI3Kα-selective inhibitors as potential colorectal cancer drugs” (Eur J Med Chem, 2023).
# Activity calls are given as the source filed them. The calls are words filed in the database; no cut-off is given here.
# Assays:
# [1] = tested on: MDA-MB-231; experiment: Antiproliferative activity against human MDA-MB-231 cells assessed as reduction in cell viability incubated for 24 to 48 hrs by CCK-8 assay; assay type: functional, cell-based
# [2] = Clearance in Sprague-Dawley rat at 5 mg/kg, iv measured upto 24 hrs by LC-MS analysis; assay type: ADME, organism-based; conditions: in vivo
# [3] = tested on: HCT-116; experiment: Antiproliferative activity against human HCT-116 cells expressing PIK3CA with H1047R mutation assessed as reduction in cell viability incubated for 24 to 48 hrs by CCK-8 assay; assay type: functional, cell-based
# [4] = Metabolic stability in artificial gastrointestinal fluid assessed as compound remaining measured upto 8 hrs by LC-MS/MS analysis; assay type: ADME
# [5] = target: Phosphatidylinositol 4,5-bisphosphate 3-kinase catalytic subunit beta isoform (Homo sapiens, UniProt P42338); experiment: Inhibition of PI3Kbeta (unknown origin) by ADP-Glo luminescent kinase assay
# Phosphatidylinositol 4,5-bisphosphate 3-kinase catalytic subunit beta isoform, sequence (P42338 whole entry, canonical isoform): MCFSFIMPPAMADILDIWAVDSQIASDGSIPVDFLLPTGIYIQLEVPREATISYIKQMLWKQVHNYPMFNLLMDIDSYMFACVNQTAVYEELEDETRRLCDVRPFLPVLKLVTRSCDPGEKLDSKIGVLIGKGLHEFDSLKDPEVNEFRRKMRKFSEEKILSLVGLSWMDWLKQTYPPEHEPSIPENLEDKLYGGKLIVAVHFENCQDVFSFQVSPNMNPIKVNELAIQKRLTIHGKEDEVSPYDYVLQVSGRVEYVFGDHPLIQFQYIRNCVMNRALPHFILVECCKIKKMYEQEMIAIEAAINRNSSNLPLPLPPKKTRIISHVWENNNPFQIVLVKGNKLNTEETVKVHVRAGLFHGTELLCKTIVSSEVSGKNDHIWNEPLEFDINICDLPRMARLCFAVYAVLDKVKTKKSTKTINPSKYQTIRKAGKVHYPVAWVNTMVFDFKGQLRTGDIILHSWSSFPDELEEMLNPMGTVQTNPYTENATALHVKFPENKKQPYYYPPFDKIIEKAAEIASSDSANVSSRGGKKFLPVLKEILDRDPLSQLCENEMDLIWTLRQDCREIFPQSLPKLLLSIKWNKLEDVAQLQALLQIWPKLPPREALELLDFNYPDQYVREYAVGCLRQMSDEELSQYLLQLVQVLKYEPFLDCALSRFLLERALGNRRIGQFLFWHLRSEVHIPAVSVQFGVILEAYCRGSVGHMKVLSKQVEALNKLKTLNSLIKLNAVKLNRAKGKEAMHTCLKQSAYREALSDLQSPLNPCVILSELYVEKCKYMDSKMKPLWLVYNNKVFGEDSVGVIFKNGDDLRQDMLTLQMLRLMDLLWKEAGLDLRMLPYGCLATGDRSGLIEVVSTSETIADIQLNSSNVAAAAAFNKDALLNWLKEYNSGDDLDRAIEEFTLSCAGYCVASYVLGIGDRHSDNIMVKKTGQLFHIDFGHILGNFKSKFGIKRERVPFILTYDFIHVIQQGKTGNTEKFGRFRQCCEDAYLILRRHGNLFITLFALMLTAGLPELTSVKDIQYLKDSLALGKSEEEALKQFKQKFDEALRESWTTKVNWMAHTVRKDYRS
# [6] = Volume of distribution in Sprague-Dawley rat at 5 mg/kg, iv measured upto 24 hrs by LC-MS analysis; assay type: ADME, organism-based; conditions: in vivo
# [7] = target: T1, Phosphatidylinositol 4,5-bisphosphate 3-kinase catalytic subunit delta isoform (Homo sapiens, UniProt O00329); experiment: Inhibition of PI3Kdelta (unknown origin) by ADP-Glo luminescent kinase assay
# T1 sequence (O00329 whole entry): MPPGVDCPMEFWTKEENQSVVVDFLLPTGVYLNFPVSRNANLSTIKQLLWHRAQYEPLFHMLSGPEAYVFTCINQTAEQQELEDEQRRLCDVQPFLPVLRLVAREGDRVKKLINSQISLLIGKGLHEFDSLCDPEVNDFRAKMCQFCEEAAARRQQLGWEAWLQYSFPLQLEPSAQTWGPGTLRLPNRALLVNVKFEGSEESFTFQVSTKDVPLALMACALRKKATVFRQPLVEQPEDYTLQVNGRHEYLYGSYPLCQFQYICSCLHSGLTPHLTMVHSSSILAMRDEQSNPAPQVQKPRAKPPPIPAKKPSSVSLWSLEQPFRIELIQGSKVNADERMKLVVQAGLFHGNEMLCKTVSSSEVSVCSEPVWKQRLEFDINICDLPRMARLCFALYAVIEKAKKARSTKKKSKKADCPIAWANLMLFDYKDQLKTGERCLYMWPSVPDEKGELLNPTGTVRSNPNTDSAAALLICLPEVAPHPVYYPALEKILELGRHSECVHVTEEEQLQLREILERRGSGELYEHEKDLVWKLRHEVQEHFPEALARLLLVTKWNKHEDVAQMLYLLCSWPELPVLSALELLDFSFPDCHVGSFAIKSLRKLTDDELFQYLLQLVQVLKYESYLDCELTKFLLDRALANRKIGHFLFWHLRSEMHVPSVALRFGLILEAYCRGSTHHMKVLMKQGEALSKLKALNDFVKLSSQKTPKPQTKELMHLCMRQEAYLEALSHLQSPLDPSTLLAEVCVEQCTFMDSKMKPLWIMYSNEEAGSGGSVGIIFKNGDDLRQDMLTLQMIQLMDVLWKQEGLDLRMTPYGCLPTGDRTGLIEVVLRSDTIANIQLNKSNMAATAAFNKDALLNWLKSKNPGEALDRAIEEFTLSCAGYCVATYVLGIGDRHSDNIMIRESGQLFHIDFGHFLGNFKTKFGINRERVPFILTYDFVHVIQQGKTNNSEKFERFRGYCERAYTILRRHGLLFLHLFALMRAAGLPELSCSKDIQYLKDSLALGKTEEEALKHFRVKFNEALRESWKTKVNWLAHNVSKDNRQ
# [8] = target: Phosphatidylinositol 4,5-bisphosphate 3-kinase catalytic subunit alpha isoform (Homo sapiens, UniProt P42336); experiment: Inhibition of PI3Kalpha (unknown origin) by ADP-Glo luminescent kinase assay
# [9] = MRT (0 to t) in Sprague-Dawley rat at 5 mg/kg, iv measured upto 24 hrs by LC-MS analysis; assay type: ADME, organism-based; conditions: in vivo
# [10] = tested on: SW-620; experiment: Antiproliferative activity against human SW-620 cells assessed as reduction in cell viability incubated for 24 to 48 hrs by CCK-8 assay; assay type: functional, cell-based
# [11] = Metabolic stability in Sprague-Dawley rat liver microsomes assessed as half life at 5 ug/ml incubated for 1 hr in presence of NADPH by LC-MS/MS analysis; assay type: ADME, Microsome; conditions: dose 5 µg/ml
# [12] = MRT (0 to infinity) in Sprague-Dawley rat at 5 mg/kg, iv measured upto 24 hrs by LC-MS analysis; assay type: ADME, organism-based; conditions: in vivo
# [13] = target: Cytochrome P450 3A4 (Homo sapiens, UniProt P08684); experiment: Inhibition of CYP3A4 in human liver microsomes using midazolam as substrate pre-incubated for 30 mins followed by substrate addition and measured after 15 mins in presence of NADPH by LC/MS analysis; assay type: ADME, Microsome
# Cytochrome P450 3A4, sequence (P08684 whole entry): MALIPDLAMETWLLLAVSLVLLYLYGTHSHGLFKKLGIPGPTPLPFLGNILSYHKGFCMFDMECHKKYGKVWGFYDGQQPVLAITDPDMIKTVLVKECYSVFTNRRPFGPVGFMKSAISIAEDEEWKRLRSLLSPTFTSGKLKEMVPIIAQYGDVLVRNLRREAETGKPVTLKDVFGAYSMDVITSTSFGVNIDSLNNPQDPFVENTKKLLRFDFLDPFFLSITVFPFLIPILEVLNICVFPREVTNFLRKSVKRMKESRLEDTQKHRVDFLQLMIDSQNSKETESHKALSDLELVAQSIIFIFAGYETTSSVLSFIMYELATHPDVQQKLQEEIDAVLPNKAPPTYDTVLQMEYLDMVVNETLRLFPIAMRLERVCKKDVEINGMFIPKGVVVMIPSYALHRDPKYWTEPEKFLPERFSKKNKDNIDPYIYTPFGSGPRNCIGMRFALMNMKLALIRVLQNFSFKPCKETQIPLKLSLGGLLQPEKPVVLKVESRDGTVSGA
# [14] = Metabolic stability in Sprague-Dawley rat liver microsomes assessed as compound remaining at 5 ug/ml incubated for 1 hr in presence of NADPH by LC-MS/MS analysis; assay type: ADME, Microsome; conditions: at 5 µg/mL, read-out: Stability
# [15] = target: Cytochrome P450 1A2 (Homo sapiens, UniProt P05177); experiment: Inhibition of CYP1A2 in human liver microsomes using phenacetin as substrate pre-incubated for 30 mins followed by substrate addition and measured after 15 mins in presence of NADPH by LC/MS analysis; assay type: ADME, Microsome
# Cytochrome P450 1A2, sequence (P05177 whole entry): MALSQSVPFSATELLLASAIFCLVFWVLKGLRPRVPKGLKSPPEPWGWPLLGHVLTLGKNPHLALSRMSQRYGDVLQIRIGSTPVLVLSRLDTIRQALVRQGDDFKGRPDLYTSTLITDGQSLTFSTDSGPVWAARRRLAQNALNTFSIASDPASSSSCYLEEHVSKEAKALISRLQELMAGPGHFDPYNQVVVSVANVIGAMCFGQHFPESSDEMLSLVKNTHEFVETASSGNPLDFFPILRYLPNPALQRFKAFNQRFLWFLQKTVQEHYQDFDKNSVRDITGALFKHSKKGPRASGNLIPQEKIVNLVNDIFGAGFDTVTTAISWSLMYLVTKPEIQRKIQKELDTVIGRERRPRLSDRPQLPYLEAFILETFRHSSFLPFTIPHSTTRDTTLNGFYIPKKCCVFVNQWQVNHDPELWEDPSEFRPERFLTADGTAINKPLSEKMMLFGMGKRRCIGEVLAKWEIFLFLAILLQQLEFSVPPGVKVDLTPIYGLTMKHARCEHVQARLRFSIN
# [16] = target: Cytochrome P450 2C9 (Homo sapiens, UniProt P11712); experiment: Inhibition of CYP2C9 in human liver microsomes using tolbutamide as substrate pre-incubated for 30 mins followed by substrate addition and measured after 15 mins in presence of NADPH by LC/MS analysis; assay type: ADME, Microsome
# Cytochrome P450 2C9, sequence (P11712 whole entry): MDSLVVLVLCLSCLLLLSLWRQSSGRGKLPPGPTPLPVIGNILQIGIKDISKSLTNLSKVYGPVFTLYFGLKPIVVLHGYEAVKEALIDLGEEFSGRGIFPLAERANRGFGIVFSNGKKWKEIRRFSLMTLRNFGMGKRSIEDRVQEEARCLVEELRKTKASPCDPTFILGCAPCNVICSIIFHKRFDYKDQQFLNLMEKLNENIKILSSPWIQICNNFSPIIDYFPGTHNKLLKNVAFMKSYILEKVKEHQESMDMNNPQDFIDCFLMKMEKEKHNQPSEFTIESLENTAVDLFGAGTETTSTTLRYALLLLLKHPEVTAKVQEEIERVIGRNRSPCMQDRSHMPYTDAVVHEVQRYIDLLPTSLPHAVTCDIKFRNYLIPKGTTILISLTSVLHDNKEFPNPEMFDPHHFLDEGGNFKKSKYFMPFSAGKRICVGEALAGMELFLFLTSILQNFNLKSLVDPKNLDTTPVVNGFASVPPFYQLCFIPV
# [17] = tested on: HCT-116; experiment: Antiproliferative activity against human HCT-116 cells assessed as inhibition of colony formation at 6 uM incubated for 48 hrs by crystal violet staining based assay; assay type: functional, cell-based
# [18] = Half life in Sprague-Dawley rat at 5 mg/kg, iv measured upto 24 hrs by LC-MS analysis; assay type: ADME, organism-based; conditions: in vivo
# [19] = Cytotoxicity against human NCM460 cells assessed as reduction in cell viability incubated for 24 to 48 hrs by CCK-8 assay; assay type: toxicity, cell-based
# [20] = AUC (0 to infinity) in Sprague-Dawley rat at 5 mg/kg, iv measured upto 24 hrs by LC-MS analysis; assay type: ADME, organism-based; conditions: in vivo
# [21] = AUC (0 to t) in Sprague-Dawley rat at 5 mg/kg, iv measured upto 24 hrs by LC-MS analysis; assay type: ADME, organism-based; conditions: in vivo
# [22] = target: Cytochrome P450 2C19 (Homo sapiens, UniProt P33261); experiment: Inhibition of CYP2C19 in human liver microsomes using omeprazole as substrate pre-incubated for 30 mins followed by substrate addition and measured after 15 mins in presence of NADPH by LC/MS analysis; assay type: ADME, Microsome
# Cytochrome P450 2C19, sequence (P33261 whole entry): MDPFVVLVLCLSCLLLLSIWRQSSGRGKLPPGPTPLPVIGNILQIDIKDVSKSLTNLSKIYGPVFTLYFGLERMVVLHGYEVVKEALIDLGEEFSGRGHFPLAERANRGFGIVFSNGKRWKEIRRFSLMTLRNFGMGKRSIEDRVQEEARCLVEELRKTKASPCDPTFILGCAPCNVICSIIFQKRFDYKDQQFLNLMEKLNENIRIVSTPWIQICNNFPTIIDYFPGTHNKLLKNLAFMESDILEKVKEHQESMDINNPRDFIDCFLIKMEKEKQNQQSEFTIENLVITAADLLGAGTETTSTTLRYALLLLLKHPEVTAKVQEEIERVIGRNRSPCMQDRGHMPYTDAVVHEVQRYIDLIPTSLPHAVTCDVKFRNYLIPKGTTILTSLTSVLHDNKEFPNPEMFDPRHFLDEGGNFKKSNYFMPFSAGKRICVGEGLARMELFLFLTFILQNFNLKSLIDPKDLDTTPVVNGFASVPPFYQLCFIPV
# [23] = tested on: MCF7; experiment: Antiproliferative activity against human MCF7 cells assessed as reduction in cell viability incubated for 24 to 48 hrs by CCK-8 assay; assay type: functional, cell-based
# [24] = tested on: HCT-116; experiment: Antiproliferative activity against human HCT-116 cells assessed as reduction in cell viability incubated for 48 hrs by CCK-8 assay; assay type: functional, cell-based; conditions: dose 20-80 µM
# [25] = tested on: HCT-116; experiment: Induction of apoptosis in human HCT-116 cells assessed as increased total apoptotic cells at 6 uM incubated for 48 hrs by Annexin V-FITC and propidium iodide staining based flow cytometry analysis (reference value: 4.22 %); assay type: functional
# [26] = target: Cytochrome P450 2D6 (Homo sapiens, UniProt P10635); experiment: Inhibition of CYP2D6 in human liver microsomes using dextromethorphan as substrate pre-incubated for 30 mins followed by substrate addition and measured after 15 mins in presence of NADPH by LC/MS analysis; assay type: ADME, Microsome
# Cytochrome P450 2D6, sequence (P10635 whole entry): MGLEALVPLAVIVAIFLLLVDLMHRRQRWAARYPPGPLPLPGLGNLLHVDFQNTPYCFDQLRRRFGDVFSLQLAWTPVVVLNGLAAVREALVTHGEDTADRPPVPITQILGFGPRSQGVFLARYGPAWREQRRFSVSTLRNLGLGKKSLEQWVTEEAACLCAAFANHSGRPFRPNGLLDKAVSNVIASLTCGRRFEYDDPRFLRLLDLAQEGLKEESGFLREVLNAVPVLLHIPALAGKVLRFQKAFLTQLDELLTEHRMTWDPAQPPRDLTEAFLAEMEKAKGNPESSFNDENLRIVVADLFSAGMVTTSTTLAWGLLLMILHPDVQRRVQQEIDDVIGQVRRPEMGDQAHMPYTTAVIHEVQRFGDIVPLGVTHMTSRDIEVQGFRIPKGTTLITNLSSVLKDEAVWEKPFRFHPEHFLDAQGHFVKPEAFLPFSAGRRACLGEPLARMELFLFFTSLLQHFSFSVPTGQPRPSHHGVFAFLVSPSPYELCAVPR
# [27] = tested on: HCT-116; experiment: Antiproliferative activity against human HCT-116 cells assessed as reduction in cell viability incubated for 24 to 48 hrs by CCK-8 assay; assay type: functional, cell-based
# [28] = Cytotoxicity against human MCF-10A cells assessed as reduction in cell viability incubated for 24 to 48 hrs by CCK-8 assay; assay type: toxicity, cell-based
# [29] = target: Phosphatidylinositol 4,5-bisphosphate 3-kinase catalytic subunit gamma isoform (Homo sapiens, UniProt P48736); experiment: Inhibition of PI3Kgamma (unknown origin) by ADP-Glo luminescent kinase assay
# Phosphatidylinositol 4,5-bisphosphate 3-kinase catalytic subunit gamma isoform, sequence (P48736 whole entry, canonical isoform): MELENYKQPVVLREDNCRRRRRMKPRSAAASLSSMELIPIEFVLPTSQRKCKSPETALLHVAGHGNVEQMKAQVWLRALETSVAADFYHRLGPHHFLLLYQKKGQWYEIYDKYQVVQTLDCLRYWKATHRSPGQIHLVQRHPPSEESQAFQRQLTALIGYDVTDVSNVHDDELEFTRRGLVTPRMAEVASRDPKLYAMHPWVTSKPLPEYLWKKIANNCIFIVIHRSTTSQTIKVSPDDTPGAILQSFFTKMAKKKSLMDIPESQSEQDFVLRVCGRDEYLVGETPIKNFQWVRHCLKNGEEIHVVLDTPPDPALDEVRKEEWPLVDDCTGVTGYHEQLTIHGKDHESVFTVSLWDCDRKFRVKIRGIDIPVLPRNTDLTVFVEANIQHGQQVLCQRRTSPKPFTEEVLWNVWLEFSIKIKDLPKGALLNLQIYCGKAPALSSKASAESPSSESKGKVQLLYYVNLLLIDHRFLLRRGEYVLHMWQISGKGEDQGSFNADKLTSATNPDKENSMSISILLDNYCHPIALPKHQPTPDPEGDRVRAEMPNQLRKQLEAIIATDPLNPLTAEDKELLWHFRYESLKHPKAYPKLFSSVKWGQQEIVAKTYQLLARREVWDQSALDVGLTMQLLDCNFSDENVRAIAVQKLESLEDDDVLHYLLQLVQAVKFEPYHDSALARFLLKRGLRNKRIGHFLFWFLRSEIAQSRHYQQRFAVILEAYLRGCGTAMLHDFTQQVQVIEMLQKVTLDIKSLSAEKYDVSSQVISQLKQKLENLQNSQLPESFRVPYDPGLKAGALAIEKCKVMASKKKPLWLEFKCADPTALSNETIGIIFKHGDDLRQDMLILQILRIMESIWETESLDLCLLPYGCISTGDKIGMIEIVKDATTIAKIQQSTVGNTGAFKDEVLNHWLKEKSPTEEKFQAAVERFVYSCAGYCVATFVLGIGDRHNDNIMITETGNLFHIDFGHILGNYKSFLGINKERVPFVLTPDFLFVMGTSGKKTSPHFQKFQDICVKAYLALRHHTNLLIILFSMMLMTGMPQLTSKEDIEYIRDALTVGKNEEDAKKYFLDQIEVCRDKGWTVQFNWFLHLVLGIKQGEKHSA
# [30] = Metabolic stability in Sprague-Dawley rat liver microsomes assessed as intrinsic clearance at 5 ug/ml incubated for 1 hr in presence of NADPH by LC-MS/MS analysis; assay type: ADME, Microsome; conditions: dose 5 µg/ml
# [31] = tested on: MCF7; experiment: Antiproliferative activity against human MCF7 cells expressing PIK3CA with E545K mutation assessed as reduction in cell viability incubated for 24 to 48 hrs by CCK-8 assay; assay type: functional, cell-based
# [32] = Cmax in Sprague-Dawley rat at 5 mg/kg, iv measured upto 24 hrs by LC-MS analysis; assay type: ADME, organism-based; conditions: in vivo
# [33] = Metabolic stability in Sprague-Dawley rat plasma assessed as compound remaining measured upto 3 hrs by LC-MS/MS analysis; assay type: ADME, cell-free
structure (smiles),measurement,setting,value
Nc1nc2cc(-c3ccc4ncc(C(=O)N5CCOCC5)n4c3)ccc2o1 [SERABELISIB],IC50,[1],15.8 µM
same,clearance,[2],11.7 mL/min/kg
same,IC50,[3],14.1 µM
same,Stability,[4],Stable
same,IC50,[5],0.594 µM
same,Vd,[6],5.6 L/kg
same,IC50,[7],0.328 µM
same,IC50,[8],0.011 µM
same,MRT last at 24 h,[9],6.5 h
same,IC50,[10],9.99 µM
same,half-life at 5 ug/ml,[11],4.44 h
same,MRT inf,[12],7.9 h
same,IC50,[13],> 10 µM
same,"remaining at 1 h, 5 ug/ml",[14],86.2%
same,IC50,[15],> 10 µM
same,IC50,[16],> 10 µM
same,Activity,[17],Active
same,half-life,[18],5.9 h
same,IC50,[19],29 µM
same,AUC(0-inf),[20],7520 ng·h/mL
same,AUC(0-t) at 24 h,[21],7120 ng·h/mL
same,IC50,[22],> 10 µM
same,IC50,[23],0.64 µM
same,Activity,[24],Dose-Dependent Effect
same,Activity,[25],11.68%
same,IC50,[26],> 10 µM
same,IC50,[27],5.8 µM
same,IC50,[28],34.1 µM
same,IC50,[29],0.402 µM
same,CLH,[30],5 µL/min/mg
same,IC50,[31],3.76 µM
same,Cmax,[32],1680 ng/mL
same,Stability,[33],Stable
